One data set deals with T1, 5-HT2CR (Homo sapiens, UniProt P28335).
T1 construct: expressed in transfected cells
T1 sequence (P28335 33-458): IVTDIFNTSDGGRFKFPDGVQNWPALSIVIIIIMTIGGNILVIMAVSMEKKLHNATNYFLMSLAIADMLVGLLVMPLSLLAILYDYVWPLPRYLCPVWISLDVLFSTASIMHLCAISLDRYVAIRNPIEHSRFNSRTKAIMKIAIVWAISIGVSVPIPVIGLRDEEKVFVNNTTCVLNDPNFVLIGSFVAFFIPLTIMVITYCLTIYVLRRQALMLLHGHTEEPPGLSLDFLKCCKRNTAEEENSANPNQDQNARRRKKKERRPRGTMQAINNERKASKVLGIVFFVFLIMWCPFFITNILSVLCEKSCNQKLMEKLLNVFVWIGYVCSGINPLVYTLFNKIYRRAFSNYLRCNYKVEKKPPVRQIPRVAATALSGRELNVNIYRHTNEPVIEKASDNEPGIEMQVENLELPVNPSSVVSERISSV
Kind of data set: 5-HT-evoked Cai2+ release in vitro. It counts as cell-based. The settings on record: highest concentration tested in vitro (10 μM). From the text: General Method for In Vitro Pharmacological Assessment of Compounds of the Invention. The Chinese hamster ovary (CHO) cell lines stably transfected with human unedited (INI) h5-HT2CR (h5-HT2CR—CHO cells) or the human h5-HT2AR (h5-HT2AR—CHO cells) were a generous gift of K. Berg and W. Clarke (University of Texas Health Science Center, San Antonio, TX) (Berg et al., Molecular Pharmacology, 46:477-484, 1994; Ding et al., ACS Chemical Neuroscience, 3:538-545, 2012). […] Changes in Cai^2+ levels were determined using the calcium sensitive dye Calcium 4 or Calcium 6 (FLIPR No-wash kit, Molecular Devices, Sunnyvale, CA). […] The fluorescence readings were then adopted to evaluate the allosteric modulation of 5-HT-induced Cai^2+ release. FlexStation 3 or FLIPR^TETRA was used to measure fluorescence. For FlexStation 3, a 17 s baseline was established before the compound was added, and fluorescence was recorded every 1.7 s thereafter for 240 s. The maximum peak height of each well was determined by SoftMax software (Pro 5.4.5). For FLIPR^TETRA, a 10 s baseline was established before adding the compound, and then record the fluorescence every 1 s for 120 s after the compound or 360 s after 5-HT. The maximum peak height of each well was determined by ScreenWorks 4.0 software. After the final reading, the cells were fixed in 2% paraformaldehyde (Sigma) overnight. […]
Consider `CCCCCCCCCCC[C@@H]1CCN[C@H](C(=O)N[C@@H]([C@H]2O[C@H](SC)[C@H](O)[C@@H](O)[C@H]2O)[C@H](C)Cl)C1.Cl` [PNU-69176E], for which the agonist-like properties entry is “agonist-like properties observed”.

The data set is the same for the next values; noted with them: profile of a 5-HT2CR PAM.
Take `CCCCCCCCCCC[C@@H]1CCN[C@H](C(=O)N[C@@H]([C@H]2O[C@H](SC)[C@H](O)[C@@H](O)[C@H]2O)[C@H](C)Cl)C1.Cl` [PNU-69176E]: the “5-HT-evoked Cai2+ release” value was “potentiated”.

Test system in another data set: not listed separately
As to the kind of experiment: Solubility of representative compounds (Table 1). The conditions noted are these: solvents listed. It counts as physicochemical.
On to “4-phenethyl-N-(2-(piperazin-1-yl)ethyl)piperidine-2-carboxamide [AB0131]”, for which the Solubility result is recorded as “EtOH, DMSO”. Regarding “N-(3-morpholinopropyl)-4-phenethylpiperidine-2-carboxamide [AB0145]”, the Solubility entry is on record as “EtOH, DMSO”. On the same count and under the same terms, in the case of “N-((1S,2S)-1,3-dihydroxy-1-(4-(methylthio)phenyl)propan-2-yl)-4-phenethylpiperidine-2-carboxamide [AB0135]” it was “EtOH, DMSO”; in that of “N-((2R,3R)-1,3-dihydroxybutan-2-yl)-4-phenethylpiperidine-2-carboxamide [AB0126]”, “EtOH, DMSO”. For the compound “N-(2-(2-hydroxyethoxy)ethyl)-4-phenethylpiperidine-2-carboxamide [AB0136]”, the Solubility entry is on record as “EtOH, DMSO”.

Consider “N-(2-(1,1-dioxidothiomorpholino)ethyl)-4-phenethylpiperidine-2-carboxamide [AB0132]”, for which the Solubility result was “EtOH, DMSO”. As to “N-(azetidin-3-yl)-4-phenethylpiperidine-2-carboxamide [AB0121]”, the Solubility entry is reported as “EtOH, DMSO”.

Consider “N-(2-hydroxyethyl)-N-methyl-4-phenethylpiperidine-2-carboxamide [AB0127]”, for which the Solubility entry is listed as “EtOH, DMSO”. On the same count and under the same terms, in the case of “N-(2-hydroxyethyl)-4-phenethylpiperidine-2-carboxamide [AB0123]” it was “EtOH, DMSO”; in that of “N-(2-(dimethylamino)ethyl)-4-phenethylpiperidine-2-carboxamide [AB0124]”, “EtOH, DMSO”. On the same count and under the same terms, the result for “N-(2-methoxyethyl)-4-phenethylpiperidine-2-carboxamide [AB0122]” reads “EtOH, DMSO”; that for “N-(2-(4-methylpiperazin-1-yl)ethyl)-4-phenethylpiperidine-2-carboxamide [AB0146]”, “EtOH, DMSO”; that for “N-((2S,3S)-1,3-dihydroxybutan-2-yl)-4-phenethylpiperidine-2-carboxamide [AB0125]”, “EtOH, DMSO”. Same read-out and setting: the result for “N,N-bis(2-hydroxyethyl)-4-phenethylpiperidine-2-carboxamide [AB0128]” reads “EtOH, DMSO”.

Source of the values: patent US20240360100A1, “HETEROCYCLIC COMPOUNDS AS SEROTONIN (5-HT) 5-HT2A AND 5-HT2C RECEPTOR POSITIVE ALLOSTERIC MODULATORS” (The Board of Regents of The University of Texas System, priority 2021, published 2024).
